Experimental data as given in patent publication US5149688A, “Methods, compounds, and compositions for immunosuppression” (priority 1990, dated 1992).
Where two headings read alike, the source gives them in different places.

Columns and labels:
lymphocytes [1] = assay: Phytohemagglutinin A (PHA) assay; assay type: cell-based; conditions: Lymphocyte, read-out: concentration giving 50% inhibition, PHA assay
Description: (§1) The following studies sought to characterize the immunosuppressive activities of ABA, both as to in vitro and in vivo efficacy in experimental systems. It is important to point out that the results obtained from the in vitro systems are generally predictive of the in vivo immunosuppressive properties of the ABA. More specifically, the assays used here are mixed lymphocyte response (MLR) and phytohemagglutinin A (PHA) assays which are valuable for identifying immune suppressive molecules in vitro, and that the results obtained therefrom are generally predictive of their in vivo effectiveness. The assays are further described below.
A second assay widely used to study immune responsiveness is mitogenic stimulation of lymphocytes with mitogenic substances of plant origin. The most widely used plant molecule is PHA.
(§2) Thus, it will be appreciated as to both the mixed lymphocyte and PHA assay that they are valuable for identifying immune suppressive molecules in vitro, and that the results obtained therefrom are generally predictive of their in vivo effectiveness.

lymphocytes [2] = assay: Primary mixed lymphocyte response (MLR) assay; assay type: cell-based; conditions: read-out: concentration giving 50% inhibition, primary MLR assay
Description: as §1
The in vitro mixed lymphocyte assay is presently employed in the clinical setting as an indicator of histocompatibility, and is premised on the transformation of resting genetically dissimilar lymphocytes into cells which synthesize DNA and undergo proliferation.
as §2

lymphocytes [3] = assay: Secondary mixed lymphocyte reaction (2'-MLR) assay; assay type: cell-based; conditions: read-out: concentration inhibiting 50% of the stimulatory activity, 2'-MLR
Description: In addition to the above immunosuppressive assays, a secondary mixed lymphocyte reaction assay was applied to ABA. The secondary mixed lymphocyte assays differs from the primary mixed lymphocyte reaction assays in that they employ many more primed responder cells that are responsive to the primary stimulating cells. The presence of such responsive cells is a reflection of immunological memory in an ongoing immunological response. […] Generally between 10% to 50% of the original input cells are recovered in viable condition. These cells are then used in the secondary mixed lymphocyte reaction.
The procedure for carrying out a secondary mixed lymphocyte reaction is described by T. Meoen, Immunological Methods, Eds I. Lefkoivits and B. Pernis, […], New York (1979). It will be appreciated that described therein is a method for carrying out secondary lymphocyte reactions using mouse cells, however such methods are generally applicable to performing secondary mixed lymphocyte reactions using human cells with modifications that are well known to those skilled in the art.

adjuvant arthritis (AA) [4] = tested on: adjuvant arthritis (AA)
[5] = tested on: rheumatoid arthritis (RA); conditions: human, in vivo; cited from earlier work
dihydrofolate reductase = conditions: cited from earlier work
adjuvant arthritis (AA) [6] = assay: Prophylactic effect of SA on adjuvant arthritis in rats (Example 1); assay type: in vivo, male Lewis rats
[7] = Plasma levels of SA during CI therapy (HPLC); assay type: in vivo, male Lewis rats; conditions: 400 mg/kg/day CI; for concentration at 216 h: rat, plasma, sc, 400 mg/kg/day
adjuvant arthritis (AA) [8] = assay: Therapeutic effect of SA on AA (Example 2); assay type: in vivo, rats
Experimental: The following experiments examined the therapeutic effect of SA on the progression of AA. In these studies, the treatments with SA began at day 5 after the rats had been immunized with M.Tb in their left footpads. At this time, the activation of lymphoid cells with M.Tb was well established and the appearance of mononuclear cells at the joint has been reported as the earliest histologic findings. Billingham, 1983, Pharma. Theory, 21: 389.
325 mg/kg/day of SA was administered by subcutaneous pump infusion from day 5 until day 19. The control animals received isotonic and isovolumic NaCl control.
A parallel group of animals were treated with daily intraperitoneal injections of 800 mg/kg/day of SA (FIGS. 6 and 7). This was done to compare the relative efficacy of continuous infusion versus a single daily intraperitoneal injection.

adjuvant arthritis (AA) [9] = assay: Comparative efficacy of MTX and SA in suppressing onset of AA (Example 3); assay type: in vivo, Lewis rats
Experimental: On the same day, pumps were surgically implanted into the first two groups. The first group received SA at 300 mg/kg/day through the pumps. The second group, which served as the control, received continuous infusion of 2.5M NaCl through the pumps.

[10] = tested on: established adjuvant arthritis (AA); assay: Comparative efficacy of SA and MTX in the treatment of established arthritis (Example 4); assay type: in vivo, male Lewis rats
Experimental: Three groups of 15 male Lewis rats were injected with M.Tb on day 0 in the left hindpaw. […] On day 16, subcutaneous pumps were placed in the SA and control groups. SA was administered at 300 mg/kg/day by CI. The control group received 2.5M NaCl. […] Treatment was continued to day 30.

adjuvant arthritis (AA) [11] = assay: Long term suppression of AA using combined SA and MTX treatment (Example 6); assay type: in vivo, male Lewis rats; conditions: SA 300 mg/kg/day IP or MTX 0.9 mg/kg/week IP, day 5 to 15
Experimental: On day 0, three groups of 10 male Lewis rats were injected with M.Tb in oil suspension, as in previous examples. […] The animals were evaluated for arthritis development.

[12] = rat, in vivo
Experimental: (§3) Isotonic and isovolumic saline was used as the control in this subcutaneous infusion treatment regimen (hereinafter referred to as SQ, or continuous infusion, CI, regimen). The treatment was started on day -4 prior to M.Tb injection (day 0). The pumps were calculated to infuse until day 10. Ten rats were used in each group.

[13] = tested on: delta-aminolevulinic dehydratase; conditions: cited from earlier work
allogeneic tumors = conditions: rats; cited from earlier work
[14] = Body weight / toxicity of rats under prophylactic SA treatment; conditions: SA level necessary for suppression of AA
Experimental: as §3

adjuvant arthritis (AA) [15] = assay: Therapeutic treatment of AA with SA and/or MTX, summary of set of experiments run in triplicate
Experimental: In the SA and MTX combined treatment regimen, the SA was administered in an amount ranging from 150-300 mg/kg/day. The MTX was administered three times a week in IP injections, at a total of 0.9 mg/kg/week.

[16] = SA 300 mg/kg/day CI, day 16 to 30

CC(=O)CC(=O)c1ccccc1C(=O)O [ABA, 2-acetoacetyl benzoic acid]
IC50 (lymphocytes [1]): 91 ± 60 µM | IC50 (lymphocytes [2]): 870 ± 280 µM | IC50 (lymphocytes [3]): ~1600 µM | footpad swelling at day 19, 4 days after cessation (adjuvant arthritis (AA) [4]; ABA 400 mg/kg/day IP): decreased footpad swelling | suppression of AA, ABA compared with SA (adjuvant arthritis (AA) [4]; ABA 400 mg/kg/day IP vs SA 800 mg/kg/day IP): ABA is more efficacious than SA in suppressing AA | footpad swelling, clinical disease scores and incidence of arthritis during administration (adjuvant arthritis (AA) [4]; ABA 400 mg/kg/day IP, FIGS. 14 and 15): AA was suppressed; the footpad swelling, clinical disease scores and incidence of arthritis were all lowered | Arthritis Incidence (adjuvant arthritis (AA) [4]; ABA 100 in ABA/PEG formulation, day 12): 100% | Arthritis Incidence (adjuvant arthritis (AA) [4]; ABA 100 in ABA/PEG formulation, day 19): 100% | suppression of arthritis (adjuvant arthritis (AA) [4]; ABA 200 and 100 mg/kg/day IP): did not show observable suppression of arthritis | Arthritis Incidence (adjuvant arthritis (AA) [4]; ABA 200 in ABA/PEG formulation, day 12): 100% | Arthritis Incidence (adjuvant arthritis (AA) [4]; ABA 200 in ABA/PEG formulation, day 19): 100% | Arthritis Incidence (adjuvant arthritis (AA) [4]; ABA 400 in ABA/PEG formulation, daily IP day 5 to 15, day 12, control 100%): 40% | Arthritis Incidence (adjuvant arthritis (AA) [4]; ABA 400 in ABA/PEG formulation, day 19 (4 days after cessation)): 100% | suppression of AA at 400 mg/kg/day, post-immunization regimen (adjuvant arthritis (AA) [4]; ABA given IP): ABA suppressed AA at 400 mg/kg/day when given IP in a post-immunization regimen

CC(C)(S)[C@@H](N)C(=O)O [D-penicillamine]
toxic side effects [5]: causes bone marrow depression and renal toxicity

CN(Cc1cnc2nc(N)nc(N)c2n1)c1ccc(C(=O)N[C@@H](CCC(=O)O)C(=O)O)cc1 [MTX, Methotrexate]
inhibition of dihydrofolate reductase (dihydrofolate reductase): inhibits dihydrofolate reductase

CC(=O)CC(=O)CCC(=O)O [SA, Succinylacetone]
arthritis severity, dose dependence (adjuvant arthritis (AA) [6]; SA 400 and 200 mg/kg/day CI, day -4 to day 10): inhibited arthritis severity in a dose dependent manner | right footpad swelling and arthritis in non-injected extremities (adjuvant arthritis (AA) [6]; SA 400 and 200 mg/kg/day, SQ ALZET pumps, day -4 to day 10, FIGS. 1 and 2): suppression of clinical arthritis | histologic arthritis of the joints (adjuvant arthritis (AA) [6]; SA treated cohort, CI): found to suppress histologic arthritis | concentration ([7]; blood collected on day 9, individual rats SA-C1, SA-C2, SA-C3, 12960 min, 12960 min, read-out: SA Level (plasma)): 50 µM | concentration at 216 h ([7]; blood collected on day 9, individual rats SA-C1, SA-C2, SA-C3, read-out: SA Level (plasma)): 44 µM | concentration at 216 h ([7]; day 9, HPLC, read-out: plasma SA levels associated with clinical suppression of arthritis): 40 to 50 µM | continuous infusion versus daily IP injection (adjuvant arthritis (AA) [8]; 325 mg/kg/day CI vs 800 mg/kg/day IP): continuous infusion results in greater suppression at a lower dose than does daily IP injection | right hindpaw swelling and clinical severity of arthritis (adjuvant arthritis (AA) [8]; SA 325 mg/kg/day SQ pump infusion, day 5 to 19, FIGS. 4 and 5): Right hindpaw swelling and clinical severity of arthritis was suppressed | arthritis during treatment (adjuvant arthritis (AA) [8]; SA 325 mg/kg/day continuous infusion): completely suppressed during treatment | day until which the clinical scores did not increase (adjuvant arthritis (AA) [8]; SA 325 mg/kg/day continuous infusion, day 5 to 19): 36 days | increase in clinical scores relative to saline treated animals (adjuvant arthritis (AA) [8]; SA 325 mg/kg/day continuous infusion, from day 36): less than half of the saline treated animals | suppression of AA beyond termination of treatment (adjuvant arthritis (AA) [8]; SA 800 mg/kg/day IP, FIG. 7): did not suppress the AA beyond the termination of the treatment regimen | day by which groups reached equivalent severity to the controls (adjuvant arthritis (AA) [8]; SA 800 mg/kg/day, daily IP): ≤ 33 days | footpad swelling after termination of treatment (adjuvant arthritis (AA) [8]; SA 800 mg/kg/day, daily IP): an attenuated increase in footpad swelling was observed, however, the swelling was less than that found in the controls | footpad swelling during treatment (adjuvant arthritis (AA) [8]; SA 800 mg/kg/day, daily IP, FIG. 6): suppression of footpad swelling until the treatment stopped | clinical severity of arthritis (adjuvant arthritis (AA) [8]; SA 800 mg/kg/day, daily IP, FIG. 7): delayed the clinical severity of the arthritis | suppression of arthritis, both regimens (adjuvant arthritis (AA) [8]; continuous infusion and daily IP injections): resulted in suppression of arthritis | suppression of AA based on disease incidence (adjuvant arthritis (AA) [9]; SA 300 mg/kg/day CI): maximal suppression of AA based on the disease incidence | footpad swelling, SA compared with MTX (adjuvant arthritis (AA) [9]; SA 300 mg/kg/day CI vs MTX […] and 3 mg/kg/week): trend towards greater inhibition | incidence of arthritis (adjuvant arthritis (AA) [9]; SA 300 mg/kg/day CI, day 14, FIG. 9): no incidence of arthritis on day 14 | footpad swelling suppression (adjuvant arthritis (AA) [9]; SA 300 mg/kg/day CI, MTX 2.4 and 3 mg/kg/week IP, FIG. 8): significant suppression | right footpad diameter, progression from day 23 to 63 ([10]; SA 300 mg/kg/day CI or MTX […] IP, day 16 to 30, FIG. 10): did not increase significantly | persistence of lack of further swelling after cessation of treatment [10, 16]: up to 33 days | progression / regression of established arthritis [10, 16]: SA prevented progression of AA, but because the disease had already established itself at the onset of treatment, SA did not cause regression of the arthritis | mean right hindpaw thickness ([10]; day 23, SA 300 mg/kg/day CI or MTX […] IP from day 16, control 321, normal about 170 U): 258 U | suppression of AA, single drugs IP (adjuvant arthritis (AA) [11]): AA was not suppressed | body weight [12]: allowed weight gain | suppression of the disease by SA using this treatment protocol (adjuvant arthritis (AA) [4]; SA 800 mg/kg/day IP): only transient suppression of the disease | inhibition of delta-aminolevulinic dehydratase [13]: potent inhibitor | tumorigenicity of allogeneic tumors (allogeneic tumors): enhance tumorigenicity of allogeneic tumors in rats | toxicity [14]: non-toxic to the animals at the level necessary for suppression of AA | CI versus IP regimen at suppressing the AA (adjuvant arthritis (AA) [15]; 300 to 400 mg/kg/day CI vs 800 mg/kg/day IP): The CI regimen was more effective than the IP regimen at suppressing the AA | suppression of AA without death or weight loss (adjuvant arthritis (AA) [15]; SA 300 to 400 mg/kg/day CI or 800 mg/kg/day IP): suppressed AA without causing death or weight loss in the rats | SA dose at which AA was suppressed without death or weight loss, IP (adjuvant arthritis (AA) [15]; daily intraperitoneal injection): 800 mg/kg/day
